The results in this text go back to patent publication US4291053A, “Agent to be administered orally to domestic animals without cellulose digestion in the rumen” (Hoechst Aktiengesellschaft, priority 1976, dated 1981).

The structures appear in SMILES notation. Values after ≈ are worked out from the molar mass of the structure shown. Where a name gives a salt, the structure may show the parent alone.

One experiment has as its system Treponema hyodysenteriae. Put plainly: Minimum inhibiting concentration against Treponema hyodysenteriae, agar diffusion test with dilution series. The class given is cell-based. Conditions: Brachyspira hyodysenteriae, read-out: Minimum inhibiting concentration (MIC). The method, then:
In order to detect the surprising effect on Treponema hyodysenteriae, this microorganism was cultivated according to the method of Harris on a trypticase-soy-agar using an addition of horse blood of 5% in a CO2 /H2 atmosphere, and the minimum inhibiting concentration of Salinomycin was determined in the agar diffusion test, while using the corresponding dilution series, as compared against commercial preparations showing a particularly good effect in dysentery diseases.
For `CC[C@H]1OC(=O)[C@H](C)[C@@H](O[C@H]2C[C@@](C)(OC)[C@@H](O)[C@H](C)O2)[C@H](C)[C@@H](O[C@@H]2O[C@H](C)C[C@H](N(C)C)[C@H]2O)[C@](C)(O)C[C@@H](C)C(=O)[C@H](C)[C@@H](O)[C@]1(C)O` [Erythromycin], the MIC is more than 100 µg/mL.

`CC[C@H]1OC(=O)C[C@@H](O)[C@H](C)[C@@H](O[C@@H]2O[C@H](C)[C@@H](O[C@H]3C[C@@](C)(O)[C@@H](O)[C@H](C)O3)[C@H](N(C)C)[C@H]2O)[C@@H](CC=O)C[C@@H](C)C(=O)/C=C/C(C)=C/[C@@H]1CO[C@@H]1O[C@H](C)[C@@H](O)[C@@H](OC)[C@H]1OC` [Tylosin]: the MIC is more than 100 µg/mL.

Turning to `CN(C)[C@@H]1C(=O)C(C(N)=O)=C(O)[C@@]2(O)C(=O)C3=C(O)c4c(O)cccc4[C@@](C)(O)[C@H]3[C@H](O)[C@@H]12` [Oxytetracycline], the MIC was found to be 100 µg/mL (≈ 217 µM).

For the compound `CN(C)[C@@H]1C(O)=C(C(N)=O)C(=O)[C@@]2(O)C(O)=C3C(=O)c4c(O)cccc4[C@@](C)(O)[C@H]3C[C@@H]12` [Tetracycline-HCl], the MIC was 50 µg/mL.

For the compound `C[n+]1c2cc(N)ccc2cc2ccc(N)cc21.[Cl-]` [3,6-Diamino-10-methyl-acridinium chloride], the MIC is 100 µg/mL.

The experiment is the same for the next values; noted with them: Brachyspira hyodysenteriae; trypticase-soy-agar with 5% horse blood, CO2/H2 atmosphere; read-out: Minimum inhibiting concentration (MIC).
On to `CC(C)c1ncc([N+](=O)[O-])n1C` [Ipronidazol], for which the MIC turned out to be 2 µg/mL (≈ 11.8 µM).

For `CCOc1ccc2nc3cc(N)ccc3c(N)c2c1` [Ethacridine lactate], the MIC came to 100 µg/mL.

Take `Cc1ncc([N+](=O)[O-])n1C` [Dimethridazol]: the MIC worked out at 5 µg/mL (≈ 35.4 µM).
